In article PMC5698552 (mBio, 2017):
pKi: −log10 of the molar value.

How the values were obtained:
[1] = biological target: T1, UDP-galactopyranose mutase (BcUGM) (Botrytis cinerea, UniProt A0A384JG93); assay: product of purified recombinant BcUGM detected by HILIC and LC-MS/MS; assay type: biochemical
T1 construct: gene BCIN_05g00580

[2] = biological target: T1, UDP-galactopyranose mutase (BcUGM); assay: enzyme kinetics with purified recombinant BcUGM, varying UDP-Galp, HPLC-UV and LC-MS product detection; assay type: biochemical

T1 sequence (A0A384JG93 entry or part of it): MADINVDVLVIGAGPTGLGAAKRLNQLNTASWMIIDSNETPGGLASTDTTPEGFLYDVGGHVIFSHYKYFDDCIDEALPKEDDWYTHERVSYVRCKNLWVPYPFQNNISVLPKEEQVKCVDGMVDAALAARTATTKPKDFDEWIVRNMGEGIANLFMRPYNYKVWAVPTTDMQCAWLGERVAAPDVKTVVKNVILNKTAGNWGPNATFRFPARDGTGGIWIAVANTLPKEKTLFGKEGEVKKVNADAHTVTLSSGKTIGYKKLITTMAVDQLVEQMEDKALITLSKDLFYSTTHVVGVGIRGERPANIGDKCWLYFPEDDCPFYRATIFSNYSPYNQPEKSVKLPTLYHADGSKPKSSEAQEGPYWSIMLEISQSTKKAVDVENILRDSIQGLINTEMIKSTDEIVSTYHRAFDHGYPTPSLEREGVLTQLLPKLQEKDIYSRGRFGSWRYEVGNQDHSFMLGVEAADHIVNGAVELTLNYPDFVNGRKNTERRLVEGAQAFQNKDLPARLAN

Row | pKi [2] | Compound | product of purified recombinant BcUGM detected by HILIC and LC-MS/MS [1]
1 |  | O=c1ccn([C@@H]2O[C@H](COP(=O)(O)OP(=O)(O)O[C@H]3O[C@@H]([C@H](O)CO)[C@H](O)[C@H]3O)[C@@H](O)[C@H]2O)c(=O)[nH]1 [UDP-galactofuranose] | transforming UDP-galactopyranose to UDP-galactofuranose in the presence of NADPH and flavin adenine dinucleotide (FAD)
2 | 3.65 | C[C@H]1O[C@H](OP(=O)(O)OP(=O)(O)OC[C@H]2O[C@@H](n3ccc(=O)[nH]c3=O)[C@H](O)[C@@H]2O)[C@H](O)[C@@H](O)C1=O [UDP-KDG] | 
